Experiments:
[1] = system: MCF7 (human breast adenocarcinoma) cells; assay: MTT cytotoxicity assay, MCF7; format: cell-based
Method: (§1) The cytotoxicity of the synthesised quinazolin-4(3H)-ones was evaluated by MTT assay, as previously described. Two cancer cell lines, MCF7 (human breast adenocarcinoma) and A2780 (human ovary adenocarcinoma), were used in this study, which were obtained from the ATCC (Rockville, MD, USA). […] Additionally, compounds were prepared at the same medium to obtain serial dilutions (50, 25, […] and 0.1 µM). […] The media were aspirated, and the formazan crystals were solubilised by adding 150 µL DMSO. Absorbance was read on a multi-plate reader (BioRad) at […]. […] The data were obtained from triplicates and analysed using statistical software.

[2] = system: A2780 (human ovary adenocarcinoma) cells; assay: MTT cytotoxicity assay, A2780; format: cell-based
Method: as §1

[3] = molecular target: T1, EGFR (Homo sapiens, UniProt P00533); assay: EGFR kinase assay kit, Kinase-Glo MAX luminescence; format: biochemical; settings: for inhibition at 0.01 µM / inhibition at 0.1 µM / inhibition at 1 µM / inhibition at 10 µM: one experimental data; for IC50: mean ± SD of triplicate
T1 construct: purchased #40321
T1 sequence (P00533 25-1210): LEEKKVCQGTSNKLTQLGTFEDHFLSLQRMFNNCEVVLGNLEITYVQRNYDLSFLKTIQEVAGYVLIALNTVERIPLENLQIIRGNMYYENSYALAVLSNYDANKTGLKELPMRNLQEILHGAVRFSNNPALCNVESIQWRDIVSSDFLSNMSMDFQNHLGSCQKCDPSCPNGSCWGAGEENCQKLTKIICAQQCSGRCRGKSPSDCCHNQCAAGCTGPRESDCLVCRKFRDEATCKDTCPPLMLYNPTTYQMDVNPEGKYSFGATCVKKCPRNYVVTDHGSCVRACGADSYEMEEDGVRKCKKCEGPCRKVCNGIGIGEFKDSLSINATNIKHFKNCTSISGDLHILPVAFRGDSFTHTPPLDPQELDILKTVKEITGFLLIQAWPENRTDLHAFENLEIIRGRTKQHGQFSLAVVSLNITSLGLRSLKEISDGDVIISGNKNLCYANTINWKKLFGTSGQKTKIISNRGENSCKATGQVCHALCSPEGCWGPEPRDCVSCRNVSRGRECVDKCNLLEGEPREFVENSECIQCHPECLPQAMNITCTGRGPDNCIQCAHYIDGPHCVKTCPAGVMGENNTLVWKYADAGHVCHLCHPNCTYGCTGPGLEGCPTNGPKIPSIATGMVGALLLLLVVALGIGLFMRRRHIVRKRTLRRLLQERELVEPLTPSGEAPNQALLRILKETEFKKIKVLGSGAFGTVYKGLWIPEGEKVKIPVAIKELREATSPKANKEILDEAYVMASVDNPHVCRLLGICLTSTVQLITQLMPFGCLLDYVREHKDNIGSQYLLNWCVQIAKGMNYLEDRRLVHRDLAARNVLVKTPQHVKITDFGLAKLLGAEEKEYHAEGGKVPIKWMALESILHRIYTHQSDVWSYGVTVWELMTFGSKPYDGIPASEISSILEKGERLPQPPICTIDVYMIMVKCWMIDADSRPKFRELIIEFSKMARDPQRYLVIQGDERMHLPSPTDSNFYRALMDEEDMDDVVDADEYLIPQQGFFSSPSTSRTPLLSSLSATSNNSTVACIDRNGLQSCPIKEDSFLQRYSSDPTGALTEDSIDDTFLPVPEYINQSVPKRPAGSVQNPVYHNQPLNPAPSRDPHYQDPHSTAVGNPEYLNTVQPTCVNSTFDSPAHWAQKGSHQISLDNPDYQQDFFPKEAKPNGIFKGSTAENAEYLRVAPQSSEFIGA
Method: (§2) The HER2/EGFR/VEGFR2 assay kit is designed to measure HER2/EGFR/VEGFR-2 inhibitory activity for screening and profiling applications, using Kinase-Glo® MAX as a detection reagent. The HER2/EGFR/VEGFR2 assay kit comes in a convenient 96-well format, with enough purified recombinant HER2/EGFR/VEGFR2 enzyme, HER2/EGFR/VEGFR2 substrate, ATP and kinase buffer 1 for 100 enzyme reactions. […] […] The quinazolin-4(3H)-ones were diluted in 10% DMSO and 5 μl of the dilution was added to a 50 μl reaction so that the final concentration of DMSO was 1% in all of the reactions. All of the enzymatic reactions were conducted at 30 °C for 40 min. The 50 μl reaction mixture contained 40 mM Tris, pH 7.4, 10 mM MgCl2, 0.1 mg/mL BSA, 1 mM DTT, 10 mM ATP, kinase substrate and the enzyme HER2 / EGFR / VEGFR2. After the enzymatic reaction, 50 μl of Kinase-Glo® MAX luminescence kinase assay solution was added to each reaction and the plates were incubated for 5 min at room temperature. Luminescence signal was measured using a Bio Tek Synergy 2 microplate reader (For detail enzyme assay protocol and the results, please see supplementary data).

[4] = molecular target: T2, CDK2/CyclinA2 (Homo sapiens, UniProt P24941); assay: CDK2 Assay Kit, Kinase-Glo MAX luminescence; format: biochemical; settings: one experimental data
T2 construct: purchased #79599
Method: The CDK2 Assay Kit is designed to measure CDK2/CyclinA2 activity for screening and profiling applications, using Kinase-Glo® MAX as a detection reagent. The CDK2 Assay Kit comes in a convenient 96-well format, with enough purified recombinant CDK2/CyclinA2 enzyme, CDK substrate peptide, ATP and kinase assay buffer for 100 enzyme reactions. […] […] The compounds were diluted in 10% DMSO and 5 μl of the dilution was added to a 50 μl reaction so that the final concentration of DMSO was 1% in all of the reactions. All of the enzymatic reactions were conducted at 30 °C for 40 min. The 50 μl reaction mixture contained 40 mM Tris, pH 7.4, 10 mM MgCl2, 0.1 mg/mL BSA, 1 mM DTT, 10 mM ATP, Kinase substrate and the enzyme (CDK2/CyclinA2). After the enzymatic reaction, 50 μl of Kinase-Glo® MAX Luminescence kinase assay solution was added to each reaction and the plates were incubated for 5 min at room temperature. Luminescence signal was measured using a Bio Tek Synergy 2 microplate reader.
Figure S1. Calculation of the IC20 Values of Protein Kinase Enzyme CDK2 for 2f
* All the kinase IC20 (µM) were calculated according to the above equations.
(1 picture or pasted object on this page, not shown here)

[5] = molecular target: T3, HER2 (Homo sapiens, UniProt P04626); assay: HER2 kinase assay kit, Kinase-Glo MAX luminescence; format: biochemical; settings: for inhibition at 0.01 µM / inhibition at 0.1 µM / inhibition at 1 µM / inhibition at 10 µM: one experimental data; for IC50: mean ± SD of triplicate
T3 construct: purchased #40721
T3 sequence (P04626 23-1255): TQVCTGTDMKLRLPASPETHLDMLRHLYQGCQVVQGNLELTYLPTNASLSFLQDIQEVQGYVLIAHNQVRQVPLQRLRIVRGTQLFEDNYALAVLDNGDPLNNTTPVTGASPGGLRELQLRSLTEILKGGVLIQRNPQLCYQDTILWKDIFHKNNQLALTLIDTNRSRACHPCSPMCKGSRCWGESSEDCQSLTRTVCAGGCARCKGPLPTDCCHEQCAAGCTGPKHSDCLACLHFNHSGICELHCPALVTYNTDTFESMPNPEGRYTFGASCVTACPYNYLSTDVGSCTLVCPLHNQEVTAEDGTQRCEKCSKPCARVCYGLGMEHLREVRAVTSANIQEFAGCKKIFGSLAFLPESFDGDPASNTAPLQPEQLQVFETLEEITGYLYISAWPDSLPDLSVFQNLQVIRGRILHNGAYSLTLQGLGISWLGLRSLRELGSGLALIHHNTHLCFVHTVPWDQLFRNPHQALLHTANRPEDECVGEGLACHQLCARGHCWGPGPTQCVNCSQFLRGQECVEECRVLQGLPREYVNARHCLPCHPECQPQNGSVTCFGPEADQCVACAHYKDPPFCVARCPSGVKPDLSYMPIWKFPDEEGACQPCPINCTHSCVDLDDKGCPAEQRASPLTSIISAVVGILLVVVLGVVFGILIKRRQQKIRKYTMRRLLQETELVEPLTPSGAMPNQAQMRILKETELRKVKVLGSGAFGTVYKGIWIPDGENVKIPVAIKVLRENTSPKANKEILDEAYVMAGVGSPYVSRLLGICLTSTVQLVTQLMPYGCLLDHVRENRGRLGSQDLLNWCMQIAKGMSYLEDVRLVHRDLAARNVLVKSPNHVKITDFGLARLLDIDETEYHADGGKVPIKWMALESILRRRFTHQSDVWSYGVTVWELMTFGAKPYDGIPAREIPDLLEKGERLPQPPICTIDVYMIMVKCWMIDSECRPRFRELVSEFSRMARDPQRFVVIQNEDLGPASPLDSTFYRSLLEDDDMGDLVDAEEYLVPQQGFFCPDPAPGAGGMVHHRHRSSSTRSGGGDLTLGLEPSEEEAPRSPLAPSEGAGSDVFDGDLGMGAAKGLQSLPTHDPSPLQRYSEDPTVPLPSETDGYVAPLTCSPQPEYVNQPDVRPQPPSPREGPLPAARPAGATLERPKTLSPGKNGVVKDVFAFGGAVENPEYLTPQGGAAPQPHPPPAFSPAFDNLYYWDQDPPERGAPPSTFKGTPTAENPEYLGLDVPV
Method: as §2

[6] = molecular target: T2, CDK2/CyclinA2; assay: CDK2 Assay Kit, Kinase-Glo MAX luminescence; format: biochemical; settings: mean ± SD of triplicate
[7] = molecular target: T4, VEGFR2 (Homo sapiens, UniProt P35968); assay: VEGFR2 kinase assay kit, Kinase-Glo MAX luminescence; format: biochemical; settings: for inhibition at 0.01 µM / inhibition at 0.1 µM / inhibition at 1 µM / inhibition at 10 µM: one experimental data, read-out: % Inhibition VEGFR-2; for IC50: mean ± SD of triplicate
T4 construct: purchased #40325
T4 sequence (P35968 20-1356): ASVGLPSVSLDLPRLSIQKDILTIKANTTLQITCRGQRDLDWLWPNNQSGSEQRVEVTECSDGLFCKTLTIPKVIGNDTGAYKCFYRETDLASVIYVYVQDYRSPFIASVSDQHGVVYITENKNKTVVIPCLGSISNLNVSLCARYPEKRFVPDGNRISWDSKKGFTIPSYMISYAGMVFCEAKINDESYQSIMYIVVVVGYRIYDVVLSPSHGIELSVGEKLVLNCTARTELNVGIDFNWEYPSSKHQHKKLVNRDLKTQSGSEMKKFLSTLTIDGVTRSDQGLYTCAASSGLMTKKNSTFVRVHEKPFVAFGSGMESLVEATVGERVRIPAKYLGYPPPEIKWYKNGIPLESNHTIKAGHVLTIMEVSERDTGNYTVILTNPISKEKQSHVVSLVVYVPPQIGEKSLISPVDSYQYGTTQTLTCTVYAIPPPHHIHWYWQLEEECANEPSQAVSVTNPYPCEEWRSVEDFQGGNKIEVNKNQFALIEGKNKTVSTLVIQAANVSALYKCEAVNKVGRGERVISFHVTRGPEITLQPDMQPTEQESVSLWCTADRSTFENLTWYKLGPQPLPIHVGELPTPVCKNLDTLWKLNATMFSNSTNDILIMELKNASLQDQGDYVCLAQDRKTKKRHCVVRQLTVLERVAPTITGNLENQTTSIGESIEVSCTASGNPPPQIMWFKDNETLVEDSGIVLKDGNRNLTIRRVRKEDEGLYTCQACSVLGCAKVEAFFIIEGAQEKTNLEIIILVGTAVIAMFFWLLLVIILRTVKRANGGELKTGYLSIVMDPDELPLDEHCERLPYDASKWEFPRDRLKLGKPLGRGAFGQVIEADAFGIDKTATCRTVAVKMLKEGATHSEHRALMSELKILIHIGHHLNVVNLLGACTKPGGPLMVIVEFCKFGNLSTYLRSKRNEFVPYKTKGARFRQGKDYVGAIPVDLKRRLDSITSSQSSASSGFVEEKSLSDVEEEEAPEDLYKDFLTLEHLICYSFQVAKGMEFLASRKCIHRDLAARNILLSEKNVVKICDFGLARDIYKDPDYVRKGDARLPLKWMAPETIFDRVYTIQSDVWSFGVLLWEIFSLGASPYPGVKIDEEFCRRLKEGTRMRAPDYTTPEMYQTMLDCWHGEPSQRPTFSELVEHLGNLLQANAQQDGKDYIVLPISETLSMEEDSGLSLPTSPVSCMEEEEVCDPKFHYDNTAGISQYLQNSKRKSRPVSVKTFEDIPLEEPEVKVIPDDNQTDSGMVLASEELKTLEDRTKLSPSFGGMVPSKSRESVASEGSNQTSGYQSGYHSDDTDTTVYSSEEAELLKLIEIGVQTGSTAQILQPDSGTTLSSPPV
Method: as §2

[8] = Homo sapiens, MCF7, mean ± SD of triplicate
[9] = Homo sapiens, A2780, mean ± SD of triplicate

Compound: NNC(=O)CSc1nc2ccc(Cl)cc2c(=O)n1-c1ccccc1 [3a, 2-((6-Chloro-4-oxo-3-phenyl-3,4-dihydroquinazolin-2-yl)thio)acetohydrazide]
- IC50 [1, 8]: 0.2 ± 0.02 µM
- IC50 [2, 9]: 3 ± 1.2 µM
- melting point: 181 to 183 °C

Compound: NNC(=O)CSc1nc2ccc(F)cc2c(=O)n1-c1ccccc1 [3b, 2-((6-Fluoro-4-oxo-3-phenyl-3,4-dihydroquinazolin-2-yl)thio)acetohydrazide]
- IC50 [1, 8]: 1.32 ± 0.12 µM
- IC50 [2, 9]: 0.3 ± 0.06 µM
- melting point: 192 to 194 °C

Compound: NNC(=O)CSc1nc2c(F)cc(F)cc2c(=O)n1-c1ccccc1 [3c, 2-((6,8-Difluoro-4-oxo-3-phenyl-3,4-dihydroquinazolin-2-yl)thio)acetohydrazide]
- IC50 [1, 8]: 0.33 ± 0.03 µM
- IC50 [2, 9]: 1.21 ± 0.01 µM
- melting point: 201 to 203 °C

Compound: COc1cc2nc(SCC(=O)NN)n(-c3ccccc3)c(=O)c2cc1OC [3d, 2-((6,7-Dimethoxy-4-oxo-3-phenyl-3,4-dihydroquinazolin-2-yl)thio)acetohydrazide]
- IC50 [1, 8]: 0.5 ± 0.29 µM
- IC50 [2, 9]: 0.77 ± 0.66 µM
- melting point: 166 to 168 °C

Compound: NNC(=O)CSc1nc2ccc(F)cc2c(=O)n1Cc1ccccc1 [3g, 2-((3-Benzyl-6-fluoro-4-oxo-3,4-dihydroquinazolin-2-yl)thio)acetohydrazide]
- inhibition at 0.01 µM [3]: 11.7%
- inhibition at 0.1 µM [3]: 40.3%
- inhibition at 1 µM [3]: 81.3%
- inhibition at 10 µM [3]: 94%
- IC50 [3]: 0.221 ± 0.014 µM
- inhibition at 0.01 µM [4]: 14.9%
- inhibition at 0.1 µM [4]: 47.1%
- inhibition at 1 µM [4]: 74.1%
- inhibition at 10 µM [4]: 89%
- inhibition at 0.01 µM [5]: 23.4%
- inhibition at 0.1 µM [5]: 23.4%
- inhibition at 1 µM [5]: 83.8%
- inhibition at 10 µM [5]: 94.8%
- IC50 [5]: 0.112 ± 0.016 µM
- IC50 [6]: 0.207 ± 0.017 µM
- inhibition at 0.01 µM [7]: 3.73%
- inhibition at 0.1 µM [7]: 40.9%
- inhibition at 1 µM [7]: 71.9%
- inhibition at 10 µM [7]: 90.3%
- IC50 [7]: 0.294 ± 0.011 µM

Compound: COc1cc2nc(SCC(=O)NN)n(Cc3ccccc3)c(=O)c2cc1OC [3i, 2-((3-Benzyl-6,7-dimethoxy-4-oxo-3,4-dihydroquinazolin-2-yl)thio)acetohydrazide]
- inhibition at 0.01 µM [3]: 3.38%
- inhibition at 0.1 µM [3]: 41.2%
- inhibition at 1 µM [3]: 77.2%
- inhibition at 10 µM [3]: 92.4%
- IC50 [3]: 0.181 ± 0.011 µM
- inhibition at 0.01 µM [4]: 10.3%
- inhibition at 0.1 µM [4]: 44.3%
- inhibition at 1 µM [4]: 72.1%
- inhibition at 10 µM [4]: 90.4%
- inhibition at 0.01 µM [5]: 17.9%
- inhibition at 0.1 µM [5]: 20.3%
- inhibition at 1 µM [5]: 84.3%
- inhibition at 10 µM [5]: 94.8%
- IC50 [5]: 0.079 ± 0.015 µM
- IC50 [6]: 0.177 ± 0.032 µM
- IC50 [1, 8]: 0.56 ± 0.31 µM
- IC50 [2, 9]: 1.36 ± 0.07 µM
- inhibition at 0.01 µM [7]: 10.2%
- inhibition at 0.1 µM [7]: 33.5%
- inhibition at 1 µM [7]: 37.2%
- inhibition at 10 µM [7]: 89.4%
- IC50 [7]: 0.257 ± 0.023 µM

Compound: CS(=O)(=O)CCNCc1ccc(-c2ccc3ncnc(Nc4ccc(OCc5cccc(F)c5)c(Cl)c4)c3c2)o1 [lapatinib, reference compound]
- inhibition at 0.01 µM [5]: 23.3%
- inhibition at 0.1 µM [5]: 23.2%
- inhibition at 1 µM [5]: 84.3%
- inhibition at 10 µM [5]: 92.2%
- IC50 [1, 8]: 5.9 ± 0.74 µM
- IC50 [2, 9]: 11.1 ± 1.03 µM
- IC50 ([2]; mean ± SD of triplicate): 12.1 ± 1.03 µM

Compound: Ethyl 2-((5-chloro-6-methyl-4-oxo-3-phenyl-3,4-dihydroquinazolin-2-yl)thio)acetate [2e]
- IC50 ([1]; mean ± SD of triplicate): 14.9 ± 0.99 µM
- IC50 ([2]; mean ± SD of triplicate): 16.4 ± 1.8 µM
